In the assay the target is T1, human GPR84 receptor (Homo sapiens, UniProt Q9NQS5).
T1 construct: host or cells: HEK293, transient transfection
As to the kind of experiment: Gαi biosensor BRET assay in HEK293 cells (antagonism of ZQ-16). It is filed as cell-based. To be noted: for inhibition at 10 µM: HEK293, single concentration 10 μM (designated F); for inhibition at 2 µM: HEK293, single concentration 2 μM (designated A); for IC50: HEK293 cells, antagonism of 200 nmol/L ZQ-16; for inhibition at 25 µM: HEK293, single concentration 25 μM (designated I). The method, boiled down: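 HEK293 cells transiently expressing human GPR84, Gαi2-Rluc8, GFP10-Gγ2 and Gβ1, in Tyrode's buffer pH 7.5. Compounds preincubated 5 min at 37° C, then 200 nmol/L ZQ-16 for 5 min at room temperature; coelenterazine 400A 5 μmol/L. BRET2 acceptor/donor ratio, background- and vehicle-corrected net BRET.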

For 25 molecules, inhibition and IC50 results are on record in patent US12617777B2, “GPR84 antagonists and uses thereof” (Liminal BioSciences Limited, priority 2021, dated 2026).

Molecules are shown by their SMILES. A value given as a limit tells only on which side of the number the result lay.

T1 sequence (Q9NQS5 whole entry): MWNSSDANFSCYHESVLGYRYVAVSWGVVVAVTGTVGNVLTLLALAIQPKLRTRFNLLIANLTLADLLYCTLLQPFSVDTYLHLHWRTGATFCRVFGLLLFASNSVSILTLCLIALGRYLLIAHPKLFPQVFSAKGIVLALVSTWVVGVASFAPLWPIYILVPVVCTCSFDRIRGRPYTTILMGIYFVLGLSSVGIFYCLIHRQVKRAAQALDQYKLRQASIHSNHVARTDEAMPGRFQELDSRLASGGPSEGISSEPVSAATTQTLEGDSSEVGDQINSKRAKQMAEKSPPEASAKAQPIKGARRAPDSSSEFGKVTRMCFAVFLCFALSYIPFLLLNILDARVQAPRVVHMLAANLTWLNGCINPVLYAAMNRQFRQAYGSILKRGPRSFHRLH

The molecule `COC(c1cccc(C#CCO)c1)c1cn(CC2CCCCO2)nn1` (stereo not shown) [Compound I-491] came in with an inhibition at 10 µM of at most 25%.

In the case of `CC(C)Oc1cc(C#CC2CC(F)(F)C2)cnc1-c1cn(CC2CCCCO2)nn1` (stereo not shown) [Compound I-649], the inhibition at 2 µM was above 75% and the IC50 lay in the range of 1000 to 3000 nM.

`Cc1cc(C#CC2CC2)ccc1-c1nnn(CC2CCCCO2)n1` (stereo not shown) [Compound I-9] came in with an inhibition at 10 µM of at most 25%.

Turning to `CC1(C)CN(CC#Cc2cnc(-c3cn(C[C@H]4CCCCO4)nn3)c(CC(F)(F)F)c2)C1` [Compound I-818], the inhibition at 10 µM is above 75%.

Molecule `COC(=O)N1CCOCC1Cn1cc(-c2ccc(C#CC3CC3)cc2C)nn1` (stereo not shown) [Compound I-106] displayed an inhibition at 10 µM of at most 25%.

In turn, `Cc1cc(N2CCCC(O)C2)ccc1-c1cn(CC2CCCCO2)nn1` (stereo not shown) [Compound I-450] came in with an inhibition at 10 µM of 25 to 50%.

`Cc1cc(C#CC2CC2)ccc1-c1cn(CC(O)CO)nn1` (stereo not shown) [Compound I-224] showed an inhibition at 10 µM of 25 to 50%.

With `CC1(C)COC(Cn2cc(-c3ncc(C#CCOC4CC4)cc3OC3CC3)nn2)OC1` [Compound I-758], the inhibition at 2 µM is above 75% and the IC50 was at most 300 nM.

`Cc1cc(C#CCN2CC(C)(C)C2)cnc1-c1nnn(CC2OCC(C)(C)CO2)n1` [Compound I-835] returned an inhibition at 10 µM of at most 25%.

With `CCc1cc(C#CCN(C)C)ccc1-c1cn(CC2OCC(C)(C)CO2)nn1` [Compound I-852], the inhibition at 2 µM is above 75%.

For `CCc1cc(C#CCN2CC(C)(CO)C2)cnc1-c1cn(CC2OCC(C)(C)CO2)nn1` [Compound I-789], the inhibition at 10 µM was in the range of 50 to 75% and the IC50 fell in the range of 300 to 1000 nM.

On to `COc1cc(C#CC2CC2)ccc1-c1cn(CC2CCCCO2)nn1` (stereo not shown) [Compound I-82], for which the inhibition at 10 µM lay in the range of 25 to 50% and the IC50 was above 3000 nM.

In turn, `Cc1cc(N2CC3(CCNC3)C2)ccc1-c1cn(CC2CCCCO2)nn1` (stereo not shown) [Compound I-167] showed an inhibition at 10 µM of at most 25%.

The molecule `CCc1cc(C#CCOC)ccc1-c1cn(CC2OCC(C)(C)CO2)nn1` [Compound I-770] came in with an IC50 of at most 300 nM.

Molecule `Cc1cc(N2CC(N(C)S(C)(=O)=O)C2)ccc1-c1cn(CC2CCCCO2)nn1` (stereo not shown) [Compound I-487] returned an inhibition at 10 µM of at most 25%.

Take `Cc1cc(C#CC2CC2)cnc1-c1cn(CC2OCC(c3ccccc3)CO2)nn1` (stereo not shown) [Compound I-705]: the inhibition at 10 µM was at most 25%.

For the molecule `CCN(CC)c1cc(N2CC(C)(CO)C2)ccc1-c1cn(CC2OCC3(CC3)CO2)nn1` [Compound I-800], the inhibition at 10 µM lay in the range of 50 to 75% and the IC50 lay in the range of 300 to 1000 nM.

For `Cc1ccc(-c2ccc(C3CN(CC4CCCCO4)C(=O)O3)c(C)c2)cn1` (stereo not shown) [Compound I-406, 5-(2-methyl-4-(6-methylpyridin-3-yl)phenyl)-3-((tetrahydro-2H-pyran-2-yl)methyl)oxazolidin-2-one], the inhibition at 10 µM is at most 25%.

`Cc1ccc(C#CCN2CC(C)(C)C2)cc1Cc1cn(CC2CCCCO2)nn1` (stereo not shown) [Compound I-415] returned an inhibition at 10 µM of 25 to 50%.

For `C(#CC1CC1)c1ccc(-c2cn(C[C@H]3COCCO3)nn2)cc1` [Compound I-22], the inhibition at 25 µM was at most 25%.

Regarding `CC(C)Oc1cc(N2CC(C)(CO)C2)cnc1-c1cn(CC2OCC(C)(C)CO2)nn1` [Compound I-694], the inhibition at 10 µM was above 75%.

For the molecule `CN(C)c1cc(N2CC(C)(CO)C2)c(F)cc1-c1cn(CC2CC(C)(C)CO2)nn1` (stereo not shown) [Compound I-710], the inhibition at 2 µM was above 75% and the IC50 is at most 300 nM.

On to `CN(c1cccc(C#N)c1)c1cn(CC2OCC(C)(C)CO2)nn1` [Compound I-802], for which the inhibition at 10 µM is above 75%.

`Cc1cc(C#CCNC(=O)C(F)(F)F)cnc1-c1cn(CC2CCCCO2)nn1` (stereo not shown) [Compound I-843, 2,2,2-trifluoro-N-(3-(5-methyl-6-(1-((tetrahydro-2H-pyran-2-yl)methyl)-1H-1,2,3-triazol-4-yl)pyridin-3-yl)prop-2-yn-1-yl)acetamide] had an inhibition at 10 µM above 75%.

`Cc1c(-c2ccc(OCc3ccccn3)cc2)nnn1CC1CCCCO1` (stereo not shown) [Compound I-50] gave an inhibition at 25 µM of 25 to 50%.
